The data set concerns heartworm microfillaria. As to the kind of experiment: Heartworm microfillaria mortality test (Test Example 1). The class given is in vitro. To be noted: final concentration 100 μg/ml in culture broth; after culturing for 7 days; microfillaria collected from infected dogs. How it is done:
Compound Nos. 32, 53, 54 and 55 were each dissolved in dimethyl sulfoxide to 10 mg/ml. These dimethyl sulfoxide solutions were diluted 100-fold to a final concentration of 100 μg/ml with the culture broth containing heartworm microfillaria collected from dogs infected with heartworm. The mortality rate of heartworm microfillaria was investigated after culturing for 7 days.
As a result, the mortality rate was 100% in each of the treatment groups.

Turning to `CCn1c(-c2c(F)cccc2F)c(-c2cc(OC)ccc2Cl)ccc1=O` [Compound 53, 5-(2-chloro-5-methoxyphenyl)-6-(2,6-difluorophenyl)-1-ethylpyridine-2(1H)-one], the “mortality rate of heartworm microfillaria” value stood at 100%.
The same measure for `CCn1c(-c2c(F)cccc2F)c(-c2cc(OC)ccc2Cl)cc(Br)c1=O` [Compound 55]: 100%.
As for `CCn1c(-c2c(F)cccc2F)c(-c2cc(OC)ccc2Cl)cc(Cl)c1=O` [Compound 54, 3-chloro-5-(2-chloro-5-methoxyphenyl)-6-(2,6-difluorophenyl)-1-ethylpyridine-2(1H)-one], the “mortality rate of heartworm microfillaria” value came out at 100%.
The same measure for `CCn1c(-c2c(F)cccc2F)c(-c2cc(OC)cc(OC)c2Cl)ccc1=O` [Compound 32]: 100%.

Source of the values: US11234970B2, “Parasitic pest control agents comprising pyridone compounds as active ingredients and methods for using the same” (MITSUI CHEMICALS AGRO, INC., priority 2017, dated 2022).
